Assay [1] concerns the target Leucine-rich repeat serine/threonine-protein kinase 2 (Homo sapiens, UniProt Q5S007). The experiment in a line: LRRK2 Assay. How it is done:
(§1) LRRK2 kinase activity was measured using Lantha Screen technology from Invitrogen. GST-tagged truncated LRRK2 from Invitrogen (Cat #PV4874) was incubated with a fluorescein-labeled peptide substrate based upon ezrin/radixin/moesin (ERM), also known as LRRKtide (Invitrogen cat #PR8976A), in the presence of a dose response of compound. Upon completion, the assay was stopped and detected with a terbium labeled anti-phospho-ERM antibody (Invitrogen, cat #PR8975A). The assay was carried out under the following protocol: The compound dose response was prepared by diluting compound to a top concentration of 0.3 mM in 100% DMSO and serial diluted by half-log in DMSO to give an 11 point curve, 100× final assay concentration. Using Echo acoustic dispensing, 60 nL of compound was transferred to a low volume Corning 384-well assay plate. 3 μL of a working solution of substrate (200 nM LRRKtide, 2 mM ATP) prepared in assay buffer (50 mM HEPES, pH 7.5, 3 mM MgCl2, with 2 mM DTT and 0.01% Brij35 added fresh) was added to the 60 nL compound assay plate. The kinase reaction was started with 3 μL of a working solution of LRRK2 enzyme at a concentration of 4 μg/mL. The final reaction concentrations were 100 nM LRRKtide, 1 mM ATP, 2 μg/mL LRRK2 enzyme and a compound dose response with a top dose of 3 μM. The reaction was allowed to progress at room temperature for 30 minutes and then stopped with the addition of 6 μL of detection buffer (20 mM Tris pH 7.6, 0.01% NP-40, 6 mM EDTA with 2 nM terbium labeled anti-phospho-ERM). After an incubation of 1 hour at room temperature, the plate was read on an Envision with an excitation wavelength of 340 nm and a reading emission at both 520 nm and 495 nm. The ratio of the 520 nm and 495 nm emission was used to analyze the data. Inhibition of mutant G2019S LRRK2 (Invitrogen cat #PV4881) was measured in the exact same method. All final concentrations of substrate ATP and enzyme were the same.

For assay [2], the target named is Leucine-rich repeat serine/threonine-protein kinase 2 [G2019S] (Homo sapiens, UniProt Q5S007, G2019S). Kind of assay: LRRK2 Assay. The method, then:
as §1

Leucine-rich repeat serine/threonine-protein kinase 2, sequence (Q5S007 whole entry, the tested form may be a part): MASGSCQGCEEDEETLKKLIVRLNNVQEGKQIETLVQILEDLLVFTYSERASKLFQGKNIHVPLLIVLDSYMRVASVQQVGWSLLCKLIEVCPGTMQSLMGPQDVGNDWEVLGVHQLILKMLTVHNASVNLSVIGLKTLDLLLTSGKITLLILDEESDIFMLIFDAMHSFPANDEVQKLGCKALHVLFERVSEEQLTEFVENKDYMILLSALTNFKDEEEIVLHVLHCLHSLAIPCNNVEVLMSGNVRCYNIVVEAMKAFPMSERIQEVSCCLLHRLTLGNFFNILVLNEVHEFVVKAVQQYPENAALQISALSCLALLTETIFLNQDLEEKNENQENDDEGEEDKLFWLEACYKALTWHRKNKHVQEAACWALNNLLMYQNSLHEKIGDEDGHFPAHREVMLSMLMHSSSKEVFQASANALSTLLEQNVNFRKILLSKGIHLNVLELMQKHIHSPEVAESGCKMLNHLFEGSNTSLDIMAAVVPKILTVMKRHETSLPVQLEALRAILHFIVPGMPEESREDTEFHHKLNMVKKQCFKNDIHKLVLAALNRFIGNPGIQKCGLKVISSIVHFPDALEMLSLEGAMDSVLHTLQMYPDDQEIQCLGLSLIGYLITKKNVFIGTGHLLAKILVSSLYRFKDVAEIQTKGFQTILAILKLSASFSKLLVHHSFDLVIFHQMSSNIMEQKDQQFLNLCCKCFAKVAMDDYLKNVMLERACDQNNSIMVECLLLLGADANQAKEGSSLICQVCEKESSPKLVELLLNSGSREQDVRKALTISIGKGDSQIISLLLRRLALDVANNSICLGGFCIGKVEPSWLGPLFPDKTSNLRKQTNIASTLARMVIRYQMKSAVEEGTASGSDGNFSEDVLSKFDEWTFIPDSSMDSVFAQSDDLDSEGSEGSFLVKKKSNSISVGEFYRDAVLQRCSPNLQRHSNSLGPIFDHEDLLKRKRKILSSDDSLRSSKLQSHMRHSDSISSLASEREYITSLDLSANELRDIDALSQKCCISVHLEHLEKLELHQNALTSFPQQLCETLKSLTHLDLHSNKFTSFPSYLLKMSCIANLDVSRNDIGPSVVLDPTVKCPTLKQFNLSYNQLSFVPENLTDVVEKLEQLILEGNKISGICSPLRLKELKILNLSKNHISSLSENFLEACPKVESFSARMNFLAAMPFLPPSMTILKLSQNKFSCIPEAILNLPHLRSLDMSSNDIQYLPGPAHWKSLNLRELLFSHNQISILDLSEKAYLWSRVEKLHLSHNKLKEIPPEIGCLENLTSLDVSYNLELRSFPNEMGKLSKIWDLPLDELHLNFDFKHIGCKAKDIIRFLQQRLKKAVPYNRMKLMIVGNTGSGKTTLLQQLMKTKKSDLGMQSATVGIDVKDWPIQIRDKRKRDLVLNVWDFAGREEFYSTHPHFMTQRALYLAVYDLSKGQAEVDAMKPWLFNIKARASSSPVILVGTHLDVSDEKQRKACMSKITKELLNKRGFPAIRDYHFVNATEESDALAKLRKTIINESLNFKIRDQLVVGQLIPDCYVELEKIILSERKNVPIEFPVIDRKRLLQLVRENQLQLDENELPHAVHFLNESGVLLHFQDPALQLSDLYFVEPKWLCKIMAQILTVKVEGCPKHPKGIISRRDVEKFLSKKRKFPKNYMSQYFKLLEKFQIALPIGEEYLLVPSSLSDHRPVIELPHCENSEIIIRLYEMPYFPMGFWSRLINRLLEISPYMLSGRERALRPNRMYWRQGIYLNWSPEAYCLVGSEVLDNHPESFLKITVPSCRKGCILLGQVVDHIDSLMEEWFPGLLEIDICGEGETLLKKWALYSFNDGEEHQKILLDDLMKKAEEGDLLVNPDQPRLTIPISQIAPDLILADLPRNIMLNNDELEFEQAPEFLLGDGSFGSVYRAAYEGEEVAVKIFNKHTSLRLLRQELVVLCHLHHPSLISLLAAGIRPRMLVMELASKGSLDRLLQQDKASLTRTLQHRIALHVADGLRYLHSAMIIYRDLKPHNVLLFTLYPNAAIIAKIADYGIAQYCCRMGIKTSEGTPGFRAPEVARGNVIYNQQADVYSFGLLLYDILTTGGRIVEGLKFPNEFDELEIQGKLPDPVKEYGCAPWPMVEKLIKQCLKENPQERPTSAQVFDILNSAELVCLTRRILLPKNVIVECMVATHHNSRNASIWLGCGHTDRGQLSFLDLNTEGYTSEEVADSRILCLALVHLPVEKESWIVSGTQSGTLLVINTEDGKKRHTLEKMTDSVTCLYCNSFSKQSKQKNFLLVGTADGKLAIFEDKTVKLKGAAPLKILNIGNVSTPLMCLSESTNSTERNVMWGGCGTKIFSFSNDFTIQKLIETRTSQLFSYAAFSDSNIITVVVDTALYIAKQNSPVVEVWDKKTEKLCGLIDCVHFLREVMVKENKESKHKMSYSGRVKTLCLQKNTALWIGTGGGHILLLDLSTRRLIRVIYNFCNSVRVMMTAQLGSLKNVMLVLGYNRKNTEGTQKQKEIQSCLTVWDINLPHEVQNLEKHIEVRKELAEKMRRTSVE
Leucine-rich repeat serine/threonine-protein kinase 2 [G2019S], sequence (Q5S007 whole entry G2019S): as the sequence (Q5S007 whole entry, the tested form may be a part) above, with G2019S counted along it

Consider `C[C@@H]1CC(n2c(C3CC(C)(F)C3)nc3cnc4ccc(F)cc4c32)CCO1` (stereo partly drawn) [US11161844, Example 31], for which the IC50 in assay [1] amounted to 22 nM; in assay [2], 15.8 nM.
`C[C@@H]1C[C@H](n2c(C3CCC(F)C3)nc3cnc4ccc(F)cc4c32)CCO1` (single isomer, unassigned) [US11161844, Example 37] gave an IC50 in assay [1] of 5.68 nM.

What is called IC50 is the midpoint of a concentration-inhibition curve. A lower IC50 goes with inhibition by little substance.

(Values after BindingDB's records for patent US11161844 (PFIZER INC., 2021).)
